The text below walks through data of patent publication US20040110771A1, “7-(r)-aminotriazolopyrimidines, the production thereof and use of the same for combatting phytopathogenic fungi” (priority 2000, published 2004).

Holding throughout (type): in vivo
One assay deals with Septoria tritici. The assay is described as follows: Protective activity against Septoria foliar blotch disease of wheat caused by Septoria tritici. The settings on record: wheat seedlings "Riband", inoculated 24 h after spraying, 2 weeks. As to the method:
The active compounds were prepared separately or jointly as a 10% strength emulsion in a mixture of 70% by weight of cyclohexanone, 20% by weight of Nekanil® LN (Lutensol® AP6, wetting agent having emulsifying and dispersing action based on ethoxylated alkylphenols) and 10% by weight of Wettol® EM (nonionic emulsifier based on ethoxylated castor oil) and diluted with water to the desired concentration.
Leaves of potted wheat seedlings of the cultivar “Riband” were sprayed to runoff point with an aqueous preparation of active compound which had been prepared from a stock solution made of 10% of active compound, 85% of cyclohexanone and 5% of emulsifier. 24 hours after the spray coating had dried on, they were inoculated with an aqueous spore suspension of Septoria tritici. The suspension contained 2.0×10^6 spores/ml. The test plants were then placed in a greenhouse at 18-22° C. and a relative atmospheric humidity of close to 100%. After 2 weeks, the extent of the development of the disease was determined visually in % infection of the entire leaf area.

Another assay relates to Pyrenophora teres. Briefly: Activity against net blotch of barley caused by Pyrenophora teres. Particulars: barley seedlings "Igri", inoculated 24 h after spraying, 6 days. The gist of the method: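 Potted barley seedlings (cv. Igri) were sprayed to runoff with aqueous compound preparation, then inoculated with P. teres spores 24 h after the spray dried. Plants were kept in a greenhouse at 20-24° C and 95-100% relative humidity, and disease was scored visually after 6 days as % infected leaf area.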

For assay [1], the system named is Blumeria graminis forma specialis tritici. Briefly: Activity against mildew of wheat caused by Blumeria graminis forma specialis tritici. Particulars: wheat seedlings "Kanzler", dusted with spores 24 h after spraying, 7 days. In outline:
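Compound, emulsified then diluted in water, sprayed to runoff onto leaves of potted wheat seedlings cv. Kanzler; inoculated with Blumeria graminis f. sp. tritici spores 24 h after the coating dried. Plants kept in greenhouse at 20-24° C., 60-90% relative humidity; mildew scored visually after 7 days as % infected leaf area.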

The next assay relates to Puccinia recondita. Briefly: Curative activity against brown rust of wheat caused by Puccinia recondita. The settings on record: curative spray 24 h after inoculation, wheat seedlings "Kanzler", 7 days. In outline:
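Wheat seedlings (cv. Kanzler) inoculated with brown rust spores and held 24 h at 90–95% humidity and 20–22°C, then sprayed to runoff with the emulsified compound the next day. Rust development on leaves scored after 7 days in greenhouse at 20–22°C and 65–70% relative humidity.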

Consider `C[C@@H](Nc1c(-c2ccccc2Cl)c(Cl)nc2ncnn12)C(C)(C)C` (single isomer, unassigned) [I.-44b], for which the figures for the “% infection of the leaves after application of an aqueous preparation comprising . . . ppm of active compound” value (shortened to “% infection of the leaves”) in the assay on Septoria tritici (16 ppm), with Septoria tritici (63 ppm) and in the assay with Septoria tritici (250 ppm) were 30%, 10% and 10%, respectively.

In the case of `CC(C)C(C)Nc1c(-c2c(Cl)cccc2Cl)c(Cl)nc2ncnn12` (stereo not drawn) [I.-8], the “% infection of the leaves” value turned out to be 40% with Pyrenophora teres (16 ppm); 15% with Pyrenophora teres (63 ppm); 15% in the assay with Pyrenophora teres (250 ppm); 70% in the assay on Septoria tritici (16 ppm); 30% in the assay on Septoria tritici (63 ppm); 30% in the assay on Septoria tritici (250 ppm).

Take `COc1cc(F)c(-c2c(Cl)nc3ncnn3c2N[C@H](C)C(C)C)c(F)c1` [I.-17]: the “% infection of the leaves” value with Septoria tritici (16 ppm) is 10%; with Septoria tritici (63 ppm), 10%; in the assay with Septoria tritici (250 ppm), 10%; in assay [1] (16 ppm), 60%; in assay [1] (63 ppm) it was 60%; in assay [1] (250 ppm), 60%.

Regarding `COc1cc(F)c(-c2c(Cl)nc3ncnn3c2N[C@H](C)C(C)(C)C)c(F)c1` [I.-18], the “% infection of the leaves” value in the assay on Septoria tritici (250 ppm) was found to be 30%.

For the compound `CCC(C)Nc1c(-c2c(F)c(F)c(F)c(F)c2F)c(Cl)nc2ncnn12` (stereo not drawn) [I.-19], the “% infection of the leaves” value with Pyrenophora teres (250 ppm) is listed as 30%; in the assay with Septoria tritici (16 ppm), 50%; with Septoria tritici (63 ppm), 10%; in the assay with Septoria tritici (250 ppm), 10%; in assay [1] (63 ppm), 7%; in assay [1] (250 ppm) it was 7%.

On to `CC(C)[C@@H](C)Nc1c(-c2c(F)c(F)c(F)c(F)c2F)c(Cl)nc2ncnn12` [I.-20], for which the “% infection of the leaves” value with Pyrenophora teres (16 ppm) is listed as 30%; in the assay with Pyrenophora teres (63 ppm), 10%; in the assay with Pyrenophora teres (250 ppm), 0%; with Septoria tritici (16 ppm), 10%; in the assay with Septoria tritici (63 ppm) it was 10%; in the assay on Septoria tritici (250 ppm) it was 10%. For the same compound, the “% infection of the leaves” value in assay [1] (16 ppm) stood at 30%; in assay [1] (63 ppm), 20%; in assay [1] (250 ppm), 5%.

For `CC(C)C(C)Nc1c(-c2ccccc2C(F)(F)F)c(Cl)nc2ncnn12` (stereo not drawn) [I.-25], the “% infection of the leaves” value in the assay with Septoria tritici (16 ppm), in the assay with Septoria tritici (63 ppm) and with Septoria tritici (250 ppm) was 0% each time.

For `CC(Nc1c(-c2ccccc2C(F)(F)F)c(Cl)nc2ncnn12)C(C)(C)C` (stereo not drawn) [I.-26], the “% infection of the leaves” value in the assay on Septoria tritici (16 ppm) is 3%; in the assay on Septoria tritici (63 ppm) it was 0%; with Septoria tritici (250 ppm) it was 0%.

With `CC(C)[C@H](C)Nc1c(-c2c(Cl)cccc2Cl)c(Cl)nc2ncnn12` [comparison (S)-amine of I.-8], the “% infection of the leaves” value in the assay on Pyrenophora teres (16 ppm) turned out to be 100%; in the assay with Pyrenophora teres (63 ppm) it was 100%; with Pyrenophora teres (250 ppm), 100%; in the assay on Septoria tritici (16 ppm) it was 90%; with Septoria tritici (63 ppm), 90%; in the assay on Septoria tritici (250 ppm), 90%.

In the case of `COc1cc(F)c(-c2c(Cl)nc3ncnn3c2N[C@@H](C)C(C)C)c(F)c1` [comparison (S)-amine of I.-17], the “% infection of the leaves” value in the assay with Septoria tritici (16 ppm) worked out at 90%; in the assay on Septoria tritici (63 ppm) it was 90%; in the assay with Septoria tritici (250 ppm) it was 90%; in assay [1] (16 ppm), 100%; in assay [1] (63 ppm), 100%; in assay [1] (250 ppm) it was 100%.

As to `COc1cc(F)c(-c2c(Cl)nc3ncnn3c2N[C@@H](C)C(C)(C)C)c(F)c1` [comparison (S)-amine of I.-18], the “% infection of the leaves” value with Septoria tritici (250 ppm) came out at 80%.

In the case of `CC[C@H](C)Nc1c(-c2c(F)c(F)c(F)c(F)c2F)c(Cl)nc2ncnn12` [comparison (S)-amine of I.-19], the “% infection of the leaves” value in the assay on Pyrenophora teres (250 ppm) came out at 80%; in the assay on Septoria tritici (16 ppm), 90%; with Septoria tritici (63 ppm) it was 90%; with Septoria tritici (250 ppm), 90%; in assay [1] (63 ppm), 30%; in assay [1] (250 ppm), 30%.

Take `Cc1cc(F)ccc1-c1c(Cl)nc2ncnn2c1N[C@@H](C)C(C)C` [comparison (S)-amine of I.-23]: the “% infection of the leaves” value in the assay on Puccinia recondita (16 ppm) was determined as 100%; in the assay with Puccinia recondita (63 ppm), 100%; in the assay with Puccinia recondita (250 ppm), 100%; with Pyrenophora teres (16 ppm), 60%; in assay [1] (16 ppm), 60%; in assay [1] (63 ppm) it was 60%. Also, the “% infection of the leaves” value in assay [1] (250 ppm) is recorded as 40%.

With `CC(C)[C@H](C)Nc1c(-c2ccccc2C(F)(F)F)c(Cl)nc2ncnn12` [comparison (S)-amine of I.-25], the “% infection of the leaves” value in the assay on Septoria tritici (16 ppm), in the assay with Septoria tritici (63 ppm) and in the assay with Septoria tritici (250 ppm) was 100% in each case.

As to `CC(Nc1c(-c2ccccc2C(F)(F)F)c(Cl)nc2ncnn12)C(C)(C)C` [comparison (S)-amine of I.-26], the “% infection of the leaves” value in the assay on Septoria tritici (16 ppm), with Septoria tritici (63 ppm) and in the assay with Septoria tritici (250 ppm) was 100% throughout.

`CC(Nc1c(-c2ccccc2Cl)c(Cl)nc2ncnn12)C(C)(C)C` [comparison (S)-amine of I.-44b]: the “% infection of the leaves” value in the assay on Septoria tritici (16 ppm), with Septoria tritici (63 ppm) and in the assay with Septoria tritici (250 ppm) was 80% in each case.
